Values of other authors, collected in paper PMC8513935.

Columns and labels:
[1] = log P octanol/water from commercial databases, averaged (the ESI); conditions: Octanol (wet), 25 C
[2] = experimental, compiled by the authors from the literature (the ESI cites the sources)
[3] = derived by the authors as gas->solvent minus gas->water (a hypothetical dry solvent; the ESI), not a two-phase measurement

Question: With `CC(C)CC(C)(C)C` as the compound, how does the log K of transfer, water to solvent [1] read?
Answer: 4.8 log10 K

Question: And the log K of transfer, gas to solvent ([2]; 2-Methylpropan-2-ol, 25 C)?
Answer: 2.64 log10 K

Question: What about the log K of transfer, gas to solvent ([2]; Butanone, 25 C) of the same compound?
Answer: 2.97 log10 K

Question: And the log K of transfer, gas to solvent ([2]; Decan-1-ol, 25 C)?
Answer: 2.86 log10 K

Question: And the log K of transfer, gas to solvent ([2]; Hexadecane, 25 C)?
Answer: 3.1 log10 K

Question: And the log K of transfer, gas to solvent ([2]; Hexan-1-ol, 25 C)?
Answer: 2.98 log10 K

Question: What about the log K of transfer, gas to solvent ([2]; Pentan-1-ol, 25 C) of the same compound?
Answer: 2.85 log10 K

Question: And the log K of transfer, gas to solvent ([2]; Propan-1-ol, 25 C)?
Answer: 2.69 log10 K

Question: What about the log K of transfer, gas to solvent ([2]; Propan-2-ol, 25 C) of the same compound?
Answer: 2.7 log10 K

Question: What about the log K of transfer, gas to solvent ([2]; Tetrahydrofuran, 25 C) of the same compound?
Answer: 3.41 log10 K

Question: What about the log K of transfer, gas to solvent ([2]; Water, 25 C) of the same compound?
Answer: -2.12 log10 K

Question: And the log K of transfer, water to solvent ([3]; 2-Methylpropan-2-ol, 25 C)?
Answer: 4.76 log10 K

Question: And the log K of transfer, water to solvent ([3]; Butanone, 25 C)?
Answer: 5.09 log10 K

Question: What about the log K of transfer, water to solvent ([3]; Decan-1-ol, 25 C) of the same compound?
Answer: 4.98 log10 K

Question: And the log K of transfer, water to solvent ([3]; Hexadecane, 25 C)?
Answer: 5.22 log10 K

Question: What about the log K of transfer, water to solvent ([3]; Hexan-1-ol, 25 C) of the same compound?
Answer: 5.1 log10 K

Question: And the log K of transfer, water to solvent ([3]; Pentan-1-ol, 25 C)?
Answer: 4.97 log10 K

Question: What about the log K of transfer, water to solvent ([3]; Propan-1-ol, 25 C) of the same compound?
Answer: 4.81 log10 K

Question: And the log K of transfer, water to solvent ([3]; Propan-2-ol, 25 C)?
Answer: 4.82 log10 K

Question: And the log K of transfer, water to solvent ([3]; Tetrahydrofuran, 25 C)?
Answer: 5.53 log10 K

Question: With `CCC(C)CC` as the compound, how does the log K of transfer, water to solvent [1] read?
Answer: 3.6 log10 K

Question: What about the log K of transfer, gas to solvent ([2]; Butan-1-ol, 25 C) of the same compound?
Answer: 2.34 log10 K

Question: What about the log K of transfer, gas to solvent ([2]; Hexadecane, 25 C) of the same compound?
Answer: 2.58 log10 K

Question: What about the log K of transfer, gas to solvent ([2]; Pentan-1-ol, 25 C) of the same compound?
Answer: 2.44 log10 K

Question: And the log K of transfer, gas to solvent ([2]; Water, 25 C)?
Answer: -1.84 log10 K

Question: And the log K of transfer, water to solvent ([3]; Butan-1-ol, 25 C)?
Answer: 4.18 log10 K

Question: What about the log K of transfer, water to solvent ([3]; Hexadecane, 25 C) of the same compound?
Answer: 4.42 log10 K

Question: What about the log K of transfer, water to solvent ([3]; Pentan-1-ol, 25 C) of the same compound?
Answer: 4.28 log10 K

Question: What does the source list for `CCCOCCC`?
Answer: log K of transfer, water to solvent [1]: 2.03 log10 K; log K of transfer, gas to solvent ([2]; 2-Methylpropan-1-ol, 25 C): 3.06 log10 K; log K of transfer, gas to solvent ([2]; 2-Methylpropan-2-ol, 25 C): 3.03 log10 K; log K of transfer, gas to solvent ([2]; Butan-1-ol, 25 C): 3.03 log10 K; log K of transfer, gas to solvent ([2]; Butan-2-ol, 25 C): 3.04 log10 K; log K of transfer, gas to solvent ([2]; Butanone, 25 C): 3.2 log10 K; log K of transfer, gas to solvent ([2]; CCl4, 25 C): 3.54 log10 K; log K of transfer, gas to solvent ([2]; Dichloromethane, 25 C): 3.68 log10 K; log K of transfer, gas to solvent ([2]; Hexadecane, 25 C): 2.95 log10 K; log K of transfer, gas to solvent ([2]; Hexan-1-ol, 25 C): 3.02 log10 K; log K of transfer, gas to solvent ([2]; Methanol, 25 C): 2.89 log10 K; log K of transfer, gas to solvent ([2]; Octan-1-ol, 25 C): 2.97 log10 K; log K of transfer, gas to solvent ([2]; Perfluoroalkane, 25 C): 2.08 log10 K; log K of transfer, gas to solvent ([2]; Propan-2-ol, 25 C): 2.95 log10 K; log K of transfer, gas to solvent ([2]; Water, 25 C): 0.9 log10 K; log K of transfer, water to solvent ([3]; 2-Methylpropan-1-ol, 25 C): 2.16 log10 K; log K of transfer, water to solvent ([3]; 2-Methylpropan-2-ol, 25 C): 2.13 log10 K; log K of transfer, water to solvent ([3]; Butan-1-ol, 25 C): 2.13 log10 K; log K of transfer, water to solvent ([3]; Butan-2-ol, 25 C): 2.14 log10 K; log K of transfer, water to solvent ([3]; Butanone, 25 C): 2.3 log10 K; log K of transfer, water to solvent ([3]; CCl4, 25 C): 2.64 log10 K; log K of transfer, water to solvent ([3]; Dichloromethane, 25 C): 2.78 log10 K; log K of transfer, water to solvent ([3]; Hexadecane, 25 C): 2.05 log10 K; log K of transfer, water to solvent ([3]; Hexan-1-ol, 25 C): 2.12 log10 K; log K of transfer, water to solvent ([3]; Methanol, 25 C): 1.99 log10 K; log K of transfer, water to solvent ([3]; Octan-1-ol(dry), 25 C): 2.07 log10 K; log K of transfer, water to solvent ([3]; Perfluoroalkane, 25 C): 1.18 log10 K; log K of transfer, water to solvent ([3]; Propan-2-ol, 25 C): 2.05 log10 K

Question: What does the source list for `CN1CCCCC1`?
Answer: log K of transfer, water to solvent [1]: 1.29 log10 K; log K of transfer, gas to solvent ([2]; Chloroform, 25 C): 4.21 log10 K; log K of transfer, gas to solvent ([2]; Hexadecane, 25 C): 3.33 log10 K; log K of transfer, gas to solvent ([2]; Water, 25 C): 2.85 log10 K; log K of transfer, water to solvent ([3]; Chloroform, 25 C): 1.36 log10 K; log K of transfer, water to solvent ([3]; Hexadecane, 25 C): 0.48 log10 K

Question: Which results are given for `Cc1ccccc1C`?
Answer: log K of transfer, water to solvent [1]: 3.12 log10 K; log K of transfer, gas to solvent ([2]; 1,2-Dichloroethane, 25 C): 4.49 log10 K; log K of transfer, gas to solvent ([2]; CCl4, 25 C): 4.53 log10 K; log K of transfer, gas to solvent ([2]; Chloroform, 25 C): 4.57 log10 K; log K of transfer, gas to solvent ([2]; Cyclohexane, 25 C): 3.98 log10 K; log K of transfer, gas to solvent ([2]; Hexadecane, 25 C): 3.94 log10 K; log K of transfer, gas to solvent ([2]; Octan-1-ol, 25 C): 3.9 log10 K; log K of transfer, gas to solvent ([2]; Pentan-1-ol, 25 C): 3.8 log10 K; log K of transfer, gas to solvent ([2]; Toluene, 25 C): 4.48 log10 K; log K of transfer, gas to solvent ([2]; Water, 25 C): 0.66 log10 K; log K of transfer, water to solvent ([3]; 1,2-Dichloroethane, 25 C): 3.83 log10 K; log K of transfer, water to solvent ([3]; CCl4, 25 C): 3.87 log10 K; log K of transfer, water to solvent ([3]; Chloroform, 25 C): 3.91 log10 K; log K of transfer, water to solvent ([3]; Cyclohexane, 25 C): 3.32 log10 K; log K of transfer, water to solvent ([3]; Hexadecane, 25 C): 3.28 log10 K; log K of transfer, water to solvent ([3]; Octan-1-ol(dry), 25 C): 3.24 log10 K; log K of transfer, water to solvent ([3]; Pentan-1-ol, 25 C): 3.14 log10 K; log K of transfer, water to solvent ([3]; Toluene, 25 C): 3.82 log10 K

Question: With `CCCCCO` as the compound, how does the log K of transfer, water to solvent [1] read?
Answer: 1.51 log10 K

Question: And the log K of transfer, gas to solvent ([2]; 1,2-Dichloroethane, 25 C)?
Answer: 4.07 log10 K

Question: What about the log K of transfer, gas to solvent ([2]; 2-Methylpropan-1-ol, 25 C) of the same compound?
Answer: 5.02 log10 K

Question: What about the log K of transfer, gas to solvent ([2]; 2-Methylpropan-2-ol, 25 C) of the same compound?
Answer: 5.1 log10 K

Question: And the log K of transfer, gas to solvent ([2]; Benzene, 25 C)?
Answer: 3.74 log10 K

Question: What about the log K of transfer, gas to solvent ([2]; Butan-1-ol, 25 C) of the same compound?
Answer: 4.96 log10 K

Question: What about the log K of transfer, gas to solvent ([2]; CCl4, 25 C) of the same compound?
Answer: 3.75 log10 K

Question: What about the log K of transfer, gas to solvent ([2]; Chlorobenzene, 25 C) of the same compound?
Answer: 3.85 log10 K

Question: What about the log K of transfer, gas to solvent ([2]; Chloroform, 25 C) of the same compound?
Answer: 4.4 log10 K

Question: What about the log K of transfer, gas to solvent ([2]; Cyclohexane, 25 C) of the same compound?
Answer: 2.94 log10 K

Question: What about the log K of transfer, gas to solvent ([2]; Decan-1-ol, 25 C) of the same compound?
Answer: 4.68 log10 K

Question: And the log K of transfer, gas to solvent ([2]; Hexadecane, 25 C)?
Answer: 3.1 log10 K

Question: And the log K of transfer, gas to solvent ([2]; Hexan-1-ol, 25 C)?
Answer: 4.9 log10 K

Question: And the log K of transfer, gas to solvent ([2]; Hexane, 25 C)?
Answer: 3.39 log10 K

Question: What about the log K of transfer, gas to solvent ([2]; Methanol, 25 C) of the same compound?
Answer: 4.93 log10 K

Question: What about the log K of transfer, gas to solvent ([2]; Octan-1-ol, 25 C) of the same compound?
Answer: 4.69 log10 K

Question: What about the log K of transfer, gas to solvent ([2]; Pentan-1-ol, 25 C) of the same compound?
Answer: 4.95 log10 K

Question: And the log K of transfer, gas to solvent ([2]; Propan-1-ol, 25 C)?
Answer: 4.97 log10 K

Question: And the log K of transfer, gas to solvent ([2]; Propan-2-ol, 25 C)?
Answer: 5.01 log10 K

Question: What about the log K of transfer, gas to solvent ([2]; Toluene, 25 C) of the same compound?
Answer: 3.79 log10 K

Question: And the log K of transfer, gas to solvent ([2]; Water, 25 C)?
Answer: 3.35 log10 K

Question: And the log K of transfer, water to solvent ([3]; 1,2-Dichloroethane, 25 C)?
Answer: 0.72 log10 K

Question: And the log K of transfer, water to solvent ([3]; 2-Methylpropan-1-ol, 25 C)?
Answer: 1.67 log10 K

Question: And the log K of transfer, water to solvent ([3]; 2-Methylpropan-2-ol, 25 C)?
Answer: 1.75 log10 K

Question: What about the log K of transfer, water to solvent ([3]; Benzene, 25 C) of the same compound?
Answer: 0.39 log10 K

Question: What about the log K of transfer, water to solvent ([3]; Butan-1-ol, 25 C) of the same compound?
Answer: 1.61 log10 K

Question: And the log K of transfer, water to solvent ([3]; CCl4, 25 C)?
Answer: 0.4 log10 K

Question: What about the log K of transfer, water to solvent ([3]; Chlorobenzene, 25 C) of the same compound?
Answer: 0.5 log10 K

Question: And the log K of transfer, water to solvent ([3]; Chloroform, 25 C)?
Answer: 1.05 log10 K

Question: What about the log K of transfer, water to solvent ([3]; Cyclohexane, 25 C) of the same compound?
Answer: -0.411 log10 K

Question: What about the log K of transfer, water to solvent ([3]; Decan-1-ol, 25 C) of the same compound?
Answer: 1.33 log10 K

Question: What about the log K of transfer, water to solvent ([3]; Hexadecane, 25 C) of the same compound?
Answer: -0.244 log10 K

Question: And the log K of transfer, water to solvent ([3]; Hexan-1-ol, 25 C)?
Answer: 1.55 log10 K

Question: And the log K of transfer, water to solvent ([3]; Hexane, 25 C)?
Answer: 0.037 log10 K

Question: What about the log K of transfer, water to solvent ([3]; Methanol, 25 C) of the same compound?
Answer: 1.58 log10 K

Question: And the log K of transfer, water to solvent ([3]; Octan-1-ol(dry), 25 C)?
Answer: 1.34 log10 K

Question: What about the log K of transfer, water to solvent ([3]; Pentan-1-ol, 25 C) of the same compound?
Answer: 1.6 log10 K

Question: And the log K of transfer, water to solvent ([3]; Propan-1-ol, 25 C)?
Answer: 1.62 log10 K

Question: What about the log K of transfer, water to solvent ([3]; Propan-2-ol, 25 C) of the same compound?
Answer: 1.66 log10 K

Question: What about the log K of transfer, water to solvent ([3]; Toluene, 25 C) of the same compound?
Answer: 0.44 log10 K
